Peptide text beside a SMILES is read from it.
Tests used:
Assay type in all cases: cell-based, human
CTL, Th and NK cells = test: Immune cell activation in PBMCs, flow cytometry; details: 0.1 and 1.0 µg/mL, 48 h, 5 independent experiments
Procedure: Immunological tests were conducted on human peripheral blood mononuclear cells, isolated from “buffy coats” using a ficoll density gradient (Histopaque, Sigma-Aldrich, St. Louis, MO, USA). Buffy coats for were obtained from blood of healthy anonymous donors of the Regional Center of Blood Donation and Blood Therapy in Gdansk, Poland. After washing in PBS, erythrocyte lysis, and cell counting (cell counter, Bio-Rad), the PBMCs were seeded onto a 24-well culture plate at a density of 10^6 cells/1 mL of RPMI 1640 (Penicillin/Streptomycin, 10% FBS) per well. After cell resting for 24 h, cells were stimulated with IM peptide (0.1 µg/mL and 1.0 µg/mL) for the next 48 h under appropriate conditions (37 °C, 5% CO2). The untreated cells were used as a negative control, whereas cells stimulated with LPS (1 µg/mL) and PHA (2.5 µg/mL) were a positive control. After incubation, the PBMCs were collected, washed with PBS, counted and prepared for flow cytometry analysis. 10^4 cells/100 µl were stained with monoclonal, fluorochrome-conjugated antibodies (anti-CD3, -CD4, -CD8, -CD16, -CD56, -CD25, -CD69, -CD71, -HLA-DR, -CD11c, -CD80, and -CD83) and incubated for 30 min in RT in the dark. Stained cells were analyzed using a flow cytometer (LSRFortessa, BD, USA). All data are presented as percentages due to the application of hospital diagnostic laboratory standards for immune cells analyses.

HaCaT keratinocytes = test: LDH cytotoxicity assay; details: 50–150 µg/mL, 48 h, serum-free medium; n=16 (Figure S5)
Procedure: (§1) Cell death was quantified by measurement of lactate dehydrogenase activity in cell culture supernatants (Takara, Japan, cat. No. MK401), following the manufacturer’s instructions. Cells were seeded into 96-well plates (BD, cat.no. 353872), at a density of 5000 cells per well, in medium (DMEM) supplemented with 10% FBS. After 24 h, the medium was changed to serum-free medium containing appropriate concentrations of IM peptide. After 48 h of stimulation supernatants were collected for LDH analysis. Cell death was normalized with respect to untreated control (without IM). Non-IM treated cells were used as negative control (0%) and Triton-X 100 (1%) was used as the positive control for maximum LDH release (maximum cytotoxicity, 100%). The assay was performed to IM in concentrations of 50–150 µg/mL.

[1] = system: adipose-derived stem cells (ASCs); test: LDH cytotoxicity assay; details: 50–150 µg/mL, 48 h, serum-free medium; n=12 (Figure S5)
Procedure: as §1

46BR.1N fibroblasts = test: LDH cytotoxicity assay; details: 50–150 µg/mL, 48 h, serum-free medium; n=16 (Figure S5)
Procedure: as §1

ASCs from donor 6 = test: RNA sequencing with ingenuity pathway analysis (IPA); details: ASCs donor 6, 0.1 µg/mL IM
Procedure: Cell stimulation was performed as previously described. Primary fibroblasts after the third passage and ASCs after the second passage were cultured in appropriate DMEM medium supplemented with 10% FBS for 24 h. Then, the medium was changed for DMEM with 5% FBS and 24-h incubation was performed. After another medium change for serum-free, cells were stimulated with IM peptide (0.1 µg/mL) for 48 h. Cell cultures deprived of FBS for 48 h were used as a control. After stimulation, the cells were trypsinized, collected, and centrifuged, and the pellet was kept frozen (−80 °C) for transcriptome analysis and transcript level analysis.
For three plastic surgery donors (donor 6, donor 11, and donor 12) ASCs (3–4.5 × 10^5 cells) after passage P2, namely cultures stimulated for 48 h with 0.1 µg/mL IM, or control cultured with FBS-deprived medium, were trypsinized, washed, and snap frozen for transcriptome analysis (see Supplementary Table S5 for clinical information). The pellets were stored at −80 °C prior to RNA isolation. RNA was isolated using a miRNeasy Mini Kit (Qiagen, Hilden, Germany) with two modifications of the original protocol: (i) chloroform was substituted with 1-bromo-3-chloropropane to prevent foaming and emulsification, and (ii) the elution was done with 40 µl of water followed by another elution with the entire volume of the original eluate. The quality and concentration of RNA was assessed using a Bioanalyzer 2100 Instrument and RNA 6000 Nano Kit (Agilent, Waldbronn, Germany). The average RNA yield was 2 µg. Samples with RIN (RNA Integrity Number) >8.0 were used for further transcriptome analysis.
A ribosome reduction kit (Arraystar Inc, Rockville, MD, USA) and SureSelect Strand Specific mRNA library kit (Agilent, Santa Clara, CA, USA) were used for next generation sequencing (NGS) library preparation according to standard procedures. The cDNA libraries were quantitated using qPCR in a Roche LightCycler 480 with the Kapa Library Quantification Kit for Illumina platforms (Kapa Biosystems, Woburn, MA, USA). Onboard cluster generation and 50 nt paired end RNA sequencing were performed on an Illumina HiSeq2500 device using Rapid Run v2 sequencing chemistry and flow cells as recommended by the manufacturer (Illumina Inc., San Diego, CA, USA). Paired end 50 bp sequencing runs were completed and the data was converted to the FASTQ Sanger format. Trim Galore was used to remove residual adapter sequences from the reads (https://www.bioinformatics.babraham.ac.uk). Sequencing reads were aligned to the human reference genome assembly (hg19) using TopHat. Further analysis was performed according to workflow for Cufflinks version 2.2.0 and higher. Transcript assembly and estimation of the relative abundances were carried out with Cufflinks using the following settings: Quartile normalization method for the libraries, blind dispersion method for replicates, and biased correction using canonical hg19 as reference. Cuffmerge and Cuffquant were then performed, followed by final comparison analysis in Cuffdiff. […] Differentially expressed genes (DGE) were grouped in functional pathways using ingenuity pathway analysis (IPA Spring Release 2017, QIAGEN, Hilde, Germany) on a gene level, using RefSeq annotation.

[2] = 48 h vs FBS-deprived medium, IPA disease and function mode

CC(C)[C@H](NC(=O)[C@H](CCCCN)NC(=O)[C@H](CC(=O)O)NC(=O)[C@@H](N)CCCNC(=N)N)C(=O)N[C@@H](Cc1ccc(O)cc1)C(=O)N[C@@H](CCCNC(=N)N)C(=O)O [IM, H-Arg-Asp-Lys-Val-Tyr-Arg-OH] (H-RDKVYR-OH)
immunogenic properties (activation of CTL, Th, NK) (CTL, Th and NK cells): no immunogenic properties | cytotoxicity (LDH release) (HaCaT keratinocytes): not cytotoxic | cytotoxicity (LDH release) [1]: not cytotoxic | cytotoxicity (LDH release) (46BR.1N fibroblasts): not cytotoxic | consistency score of the IPA regulatory network (ASCs from donor 6; 48 h, highest consistency score (Figure S10A)): 29.69 | Predicted Direction of Change: Activation of cells (ASCs from donor 6; [2]): Activation | Predicted Direction of Change: Binding of neutrophils (ASCs from donor 6; [2]): Activation | Predicted Direction of Change: Cell migration of granulocytes (ASCs from donor 6; [2]): Activation | Predicted Direction of Change: Cell migration of neutrophils (ASCs from donor 6; [2]): Activation | Predicted Direction of Change: Cell movements (ASCs from donor 6; [2]): Activation | Predicted Direction of Change: Chemotaxis (ASCs from donor 6; [2]): Activation | Predicted Direction of Change: Immune response (ASCs from donor 6; [2]): Activation | Predicted Direction of Change: Migration of cells (ASCs from donor 6; [2]): Activation | Predicted Direction of Change: Migration of endothelium cells (ASCs from donor 6; [2]): Activation | Predicted Direction of Change: Permeability of endothelium cells (ASCs from donor 6; [2]): Activation | Predicted Direction of Change: RNA transactivation (ASCs from donor 6; [2]): Activation | Predicted Direction of Change: Secretion of lipids (ASCs from donor 6; [2]): Activation | Predicted Direction of Change: Synthesis of fatty acids (ASCs from donor 6; [2]): Activation | Predicted Direction of Change: Synthesis of nitric oxide (ASCs from donor 6; [2]): Activation
